Test results taken from patent US10202387B2, “Heterocyclyl linked imidazopyridazine derivatives as PI3KB inhibitors” (Janssen Pharmaceutica NV, priority 2014, dated 2019).
pIC50, pKd: −log10 of the molar value. Blank lines part the entries; values can stand above or below the compound they belong to.

Legend:
[1] = target: T1, PIK3Cδ_h (Homo sapiens, UniProt O00329); test: Enzyme binding assay (KINOMEscan); details: DiscoveRx
T1 construct: purchased DiscoveRx Corporation, San Diego (KINOMEscan service)
T1 sequence (O00329 1-1044): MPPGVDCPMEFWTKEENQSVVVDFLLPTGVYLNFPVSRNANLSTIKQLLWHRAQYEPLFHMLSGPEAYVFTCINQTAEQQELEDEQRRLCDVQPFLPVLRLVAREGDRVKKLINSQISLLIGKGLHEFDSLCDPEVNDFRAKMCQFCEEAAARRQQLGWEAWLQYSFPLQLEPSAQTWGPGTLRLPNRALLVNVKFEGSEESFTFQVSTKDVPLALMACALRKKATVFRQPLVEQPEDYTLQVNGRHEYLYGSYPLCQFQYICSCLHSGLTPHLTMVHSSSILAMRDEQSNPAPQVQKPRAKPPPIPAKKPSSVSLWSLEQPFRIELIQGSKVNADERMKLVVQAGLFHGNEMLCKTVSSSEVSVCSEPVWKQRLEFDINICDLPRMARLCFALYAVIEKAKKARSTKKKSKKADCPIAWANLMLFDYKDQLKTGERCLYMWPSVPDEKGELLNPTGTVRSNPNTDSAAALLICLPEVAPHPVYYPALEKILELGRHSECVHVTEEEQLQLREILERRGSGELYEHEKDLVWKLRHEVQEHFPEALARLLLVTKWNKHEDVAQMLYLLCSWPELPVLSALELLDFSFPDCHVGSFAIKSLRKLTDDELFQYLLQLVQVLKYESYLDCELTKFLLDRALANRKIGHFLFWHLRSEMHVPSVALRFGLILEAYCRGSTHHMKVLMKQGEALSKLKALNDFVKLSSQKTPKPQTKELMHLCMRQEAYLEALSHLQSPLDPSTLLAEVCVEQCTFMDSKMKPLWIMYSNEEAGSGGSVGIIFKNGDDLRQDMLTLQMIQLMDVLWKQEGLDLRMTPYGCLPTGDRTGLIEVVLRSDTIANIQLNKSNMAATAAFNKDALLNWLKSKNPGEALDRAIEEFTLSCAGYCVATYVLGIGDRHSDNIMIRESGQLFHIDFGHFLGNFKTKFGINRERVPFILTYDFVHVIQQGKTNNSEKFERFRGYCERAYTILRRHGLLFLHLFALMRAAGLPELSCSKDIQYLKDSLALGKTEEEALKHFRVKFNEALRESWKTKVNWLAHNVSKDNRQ
Method: (§1) Enzyme Binding Assays (KINOMEscan®)
(§2) Kinase enzyme binding affinities of compounds disclosed herein were determined using the KINOMEscan technology performed by DiscoveRx Corporation, San Diego, Calif., USA (www.kinomescan.com). Table A reports the obtained Kd values (nM), with the Kd being the inhibitor binding constant: […]

[2] = target: T2, MTOR_h (Homo sapiens, UniProt P42345); test: Enzyme binding assay (KINOMEscan); details: DiscoveRx
T2 construct: purchased DiscoveRx Corporation, San Diego (KINOMEscan service)
Method: as §1, §2

[3] = target: T3, PIK3Cα_h (Homo sapiens, UniProt P42336); test: Enzyme binding assay (KINOMEscan); details: DiscoveRx
T3 construct: purchased DiscoveRx Corporation, San Diego (KINOMEscan service)
Method: as §1, §2

[4] = target: T4, PIK3Cγ_h (Homo sapiens, UniProt P48736); test: Enzyme binding assay (KINOMEscan); details: DiscoveRx
T4 construct: purchased DiscoveRx Corporation, San Diego (KINOMEscan service)
Method: as §1, §2

[5] = target: T5, PIK3Cβ_h (Homo sapiens, UniProt P42338); test: Enzyme binding assay (KINOMEscan); details: DiscoveRx
T5 construct: purchased DiscoveRx Corporation, San Diego (KINOMEscan service)
Method: as §1, §2

[6] = tested on: Akt phosphorylated at Ser473 in PC-3 cells; test: Cellular assay: phosphorylation of Akt (Ser473) in PC-3 cells, MSD ELISA; format: cell-based; details: Homo sapiens, 1 h, 60 min incubation with compound, read-out: IC50 pAkt_S473
Method: (§3) Cellular activity of PI3Kβ inhibitors was determined by quantifying the phosphorylation of Akt in PC-3 cells. Akt phosphorylated at Ser473 and Thr308 were measured using an enzyme-linked immunosorbent assay (ELISA; Meso Scale Discovery (MSD). Gaithersburg, Md.) and specific primary antibodies from MSD.
(§4) On day 1, PC3 cells (ATCC […]) were seeded into PerkinElmer MW96 plates at 25.000 cells per well, in 75 μl complete culture medium (DMEM (Dulbecco's Modified Eagle's Medium) high glucose. AQmedia™, D0819, Sigma-Aldrich) containing 10% heat inactivated FCS (Fetal Bovine Serum) and incubated at 37° C., 5% CO2 during 24 hours. On day 2, compound or DMSO (dimethyl sulfoxide) (0.3%) was added and cells were further incubated for 60 min at 37° C., 5% CO2 in a total volume of 100 μl of medium.
(§5) The phosphoprotein assay was executed according to vendor instructions in the Phospho-Akt (Ser473) Assay Whole Cell Lysate Kit (MSD #K15100D-3) and the Phospho-Akt (Thr308) Assay Whole Cell Lysate Kit (MSD #K151DYD-3) using the lysis, blocking and wash buffer provided.
(§6) Briefly, at the end of the cell treatment period, media were removed by aspiration and adherent cells were lysed in 50 μl ice-cold lysis buffer. MSD plates are supplied pre-coated with capture antibodies for Phospho-Akt (Ser473 and Thr308). After blocking, lysates from tissue culture plates were added and plates were washed. Then, a solution containing the detection antibody (anti-total Akt conjugated with an electrochemiluminescent compound-MSD Sulfo-tag label) was added. The signals were detected using an MSD SECTOR Imager 6000 and are proportional to the phospho-Akt titres.
(§7) Data were processed. The percentage of inhibition was plotted against the log concentration of test compounds, and the sigmoidal log concentration-effect curve of best fit was calculated by nonlinear regression analysis. From these concentration-response curves, the IC50 values were calculated. Five concentrations were used for curve fitting.

[7] = tested on: Akt phosphorylated at Thr308 in PC-3 cells; test: Cellular assay: phosphorylation of Akt (Thr308) in PC-3 cells, MSD ELISA; format: cell-based; details: Homo sapiens, 1 h, 60 min incubation with compound, read-out: IC50 pAkt_Thr308
Method: as §3, §4, §5, §6, §7

T5 sequence (P42338 whole entry): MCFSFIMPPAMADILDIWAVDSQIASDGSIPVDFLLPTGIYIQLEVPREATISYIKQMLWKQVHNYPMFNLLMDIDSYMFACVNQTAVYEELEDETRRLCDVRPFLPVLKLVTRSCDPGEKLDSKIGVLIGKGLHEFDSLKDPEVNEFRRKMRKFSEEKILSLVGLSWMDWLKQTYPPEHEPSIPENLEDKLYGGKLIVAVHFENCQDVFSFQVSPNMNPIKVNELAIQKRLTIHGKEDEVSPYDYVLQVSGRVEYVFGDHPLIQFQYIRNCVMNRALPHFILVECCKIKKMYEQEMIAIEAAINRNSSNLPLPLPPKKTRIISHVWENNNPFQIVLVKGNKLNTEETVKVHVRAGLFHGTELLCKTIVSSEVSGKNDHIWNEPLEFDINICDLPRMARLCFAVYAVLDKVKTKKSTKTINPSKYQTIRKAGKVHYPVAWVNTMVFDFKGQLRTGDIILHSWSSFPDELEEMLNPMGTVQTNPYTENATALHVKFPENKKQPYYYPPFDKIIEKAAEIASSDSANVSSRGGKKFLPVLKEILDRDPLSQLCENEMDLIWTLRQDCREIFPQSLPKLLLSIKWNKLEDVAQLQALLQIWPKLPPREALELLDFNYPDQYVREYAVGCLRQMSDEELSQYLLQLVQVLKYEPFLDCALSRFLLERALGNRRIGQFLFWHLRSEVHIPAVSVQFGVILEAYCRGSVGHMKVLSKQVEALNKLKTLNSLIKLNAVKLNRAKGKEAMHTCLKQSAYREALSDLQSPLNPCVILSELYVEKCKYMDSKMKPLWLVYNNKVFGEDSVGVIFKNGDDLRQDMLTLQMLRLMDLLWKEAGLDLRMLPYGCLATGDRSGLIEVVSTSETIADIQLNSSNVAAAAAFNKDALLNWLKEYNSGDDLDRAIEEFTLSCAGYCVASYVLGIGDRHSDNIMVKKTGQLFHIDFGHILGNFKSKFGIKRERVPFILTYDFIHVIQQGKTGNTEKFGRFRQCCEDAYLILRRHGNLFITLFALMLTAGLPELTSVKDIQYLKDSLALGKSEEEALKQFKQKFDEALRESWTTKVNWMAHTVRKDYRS
T3 sequence (P42336 whole entry): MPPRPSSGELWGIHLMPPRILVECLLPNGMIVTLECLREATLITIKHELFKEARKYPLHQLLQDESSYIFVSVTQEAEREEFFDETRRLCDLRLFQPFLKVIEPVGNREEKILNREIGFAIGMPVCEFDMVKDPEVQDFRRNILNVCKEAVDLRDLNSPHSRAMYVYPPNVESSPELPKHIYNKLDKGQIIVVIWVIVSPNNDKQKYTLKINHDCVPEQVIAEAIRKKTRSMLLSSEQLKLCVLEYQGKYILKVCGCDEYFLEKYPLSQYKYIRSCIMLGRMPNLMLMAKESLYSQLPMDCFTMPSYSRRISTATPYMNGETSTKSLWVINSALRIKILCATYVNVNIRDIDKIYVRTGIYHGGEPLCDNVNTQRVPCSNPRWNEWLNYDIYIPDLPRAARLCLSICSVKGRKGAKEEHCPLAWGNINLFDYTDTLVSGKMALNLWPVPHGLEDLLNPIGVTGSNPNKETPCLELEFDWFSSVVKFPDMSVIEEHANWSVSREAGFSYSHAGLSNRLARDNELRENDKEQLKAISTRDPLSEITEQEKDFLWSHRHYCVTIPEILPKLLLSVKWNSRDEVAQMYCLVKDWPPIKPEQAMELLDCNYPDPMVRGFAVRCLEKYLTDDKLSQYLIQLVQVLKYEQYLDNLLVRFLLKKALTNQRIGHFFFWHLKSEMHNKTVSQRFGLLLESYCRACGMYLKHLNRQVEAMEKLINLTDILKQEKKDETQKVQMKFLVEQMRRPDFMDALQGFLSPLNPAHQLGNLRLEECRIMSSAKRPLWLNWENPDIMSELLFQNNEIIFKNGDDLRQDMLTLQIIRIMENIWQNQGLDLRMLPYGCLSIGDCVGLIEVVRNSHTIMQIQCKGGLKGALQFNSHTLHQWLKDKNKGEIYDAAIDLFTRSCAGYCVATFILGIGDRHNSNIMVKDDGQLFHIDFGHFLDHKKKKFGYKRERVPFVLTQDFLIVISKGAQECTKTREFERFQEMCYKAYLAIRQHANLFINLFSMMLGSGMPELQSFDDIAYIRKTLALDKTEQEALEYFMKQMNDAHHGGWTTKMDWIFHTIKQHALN
T4 sequence (P48736 whole entry): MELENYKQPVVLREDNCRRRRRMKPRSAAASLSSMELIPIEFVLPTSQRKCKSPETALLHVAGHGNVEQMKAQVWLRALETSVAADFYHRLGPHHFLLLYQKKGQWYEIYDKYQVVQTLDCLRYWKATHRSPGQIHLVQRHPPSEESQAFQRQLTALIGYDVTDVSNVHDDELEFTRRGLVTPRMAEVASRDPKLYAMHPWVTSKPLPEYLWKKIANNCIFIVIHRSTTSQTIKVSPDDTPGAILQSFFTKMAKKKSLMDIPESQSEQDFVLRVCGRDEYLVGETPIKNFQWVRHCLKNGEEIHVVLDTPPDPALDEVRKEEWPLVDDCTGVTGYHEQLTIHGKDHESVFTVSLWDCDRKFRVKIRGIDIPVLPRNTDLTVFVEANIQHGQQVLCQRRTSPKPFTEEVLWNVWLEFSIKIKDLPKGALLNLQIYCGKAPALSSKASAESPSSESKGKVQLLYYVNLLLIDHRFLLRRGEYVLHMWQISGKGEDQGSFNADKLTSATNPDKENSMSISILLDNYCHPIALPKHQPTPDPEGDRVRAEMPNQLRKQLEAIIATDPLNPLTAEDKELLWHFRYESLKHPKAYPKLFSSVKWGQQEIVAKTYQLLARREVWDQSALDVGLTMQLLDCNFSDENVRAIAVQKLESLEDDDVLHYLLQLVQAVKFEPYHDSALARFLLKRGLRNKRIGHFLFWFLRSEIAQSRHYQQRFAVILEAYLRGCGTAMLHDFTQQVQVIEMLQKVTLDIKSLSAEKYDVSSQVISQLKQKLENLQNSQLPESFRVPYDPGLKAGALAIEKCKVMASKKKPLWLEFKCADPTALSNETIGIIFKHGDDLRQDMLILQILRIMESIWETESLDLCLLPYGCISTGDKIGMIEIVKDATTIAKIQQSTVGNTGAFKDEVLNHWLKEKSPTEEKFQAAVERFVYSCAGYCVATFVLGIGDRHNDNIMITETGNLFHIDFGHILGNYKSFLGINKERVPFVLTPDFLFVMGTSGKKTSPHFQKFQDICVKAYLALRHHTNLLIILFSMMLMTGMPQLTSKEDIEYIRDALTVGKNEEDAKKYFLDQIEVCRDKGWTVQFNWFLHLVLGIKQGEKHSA

melting point: 180 °C | pKd [1]: 7.64 | pKd [2]: 4.67 | pKd [3]: 5.26 | pKd [4]: < 4.52 | pKd [5]: 8.68 | pIC50 [6]: 8.22 | pIC50 [7]: ~8.40
SMILES: Cc1c(Cc2c(CN3CC4(CCS4(=O)=O)C3)nc3c(N)cc(N4CCOCC4)nn23)cccc1C(F)(F)F [Compound 2]

melting point: 159 °C | pKd [1]: 7.01 | pKd [2]: 6.39 | pKd [3]: 5.94 | pKd [4]: 5.28 | pKd [5]: 8.70 | pIC50 [6]: 6.67 | pIC50 [7]: 6.63
SMILES: Cc1c(Cc2c(CN3CC(C)NC(C)C3)nc3c(-c4ccn[nH]4)cc(N4CCOCC4)nn23)cccc1C(F)(F)F (stereo not shown) [Compound 25]

melting point: 130 °C | pKd [1]: 7.28 | pKd [2]: 5.40 | pKd [3]: 5.50 | pKd [4]: 4.77 | pKd [5]: 9.30 | pIC50 [6]: 7.31 | pIC50 [7]: 7.82
SMILES: Cc1c(Cc2c(CC(=O)N3CC(CO)C3)nc3c(N)cc(N4CCOCC4)nn23)cccc1C(F)(F)F [Compound 24]

Continued, compound first:

SMILES: Cc1c(Cc2c(CC(=O)N3CC(C)NC(C)C3)nc3c(N)cc(N4CCOCC4)nn23)cccc1C(F)(F)F (stereo not shown) [Compound 22]
melting point: 110 °C | pKd [1]: 7.25 | pKd [2]: 4.97 | pKd [3]: 5.65 | pKd [4]: 5.05 | pKd [5]: 9.30 | pIC50 [6]: 7.35 | pIC50 [7]: ~7.59

SMILES: Cc1c(Cc2c(CN3CCC(CO)CC3)nc3c(N)cc(N4CCOCC4)nn23)cccc1C(F)(F)F [Compound 9]
melting point: 215 °C | pKd [1]: 7.19 | pKd [2]: < 4.52 | pKd [3]: 4.84 | pKd [4]: < 4.52 | pKd [5]: 9.22 | pIC50 [6]: 7.12 | pIC50 [7]: ~7.41
